The values below come from US10865203B2, “Ligands selective to alpha 6 subunit-containing GABAA receptors and their methods of use” (UWM Research Foundation, Inc., priority 2015, dated 2020).

The subject of data set [1] is METH-impaired PPI in C57/B6 mice. Put plainly: PPI test, methamphetamine-impaired prepulse inhibition. The data set is classed as in vivo, mouse. The settings on record: mice, compound 10 mg/kg i.p. 15 min before METH 2 mg/kg i.p. The procedure:
All animal experiments conducted at NTU were approved by the Institutional Animal Care and Use Committee of College of Medicine, National Taiwan University. C57/B6 (8-10 weeks) mice were used for the PPI test and Wistar rats (8-9 weeks) were used in the migraine model. Animals were housed in an animal room with a 12-h light/12-h dark cycle and free access to food and water.
The PPI test was conducted with a PPI apparatus (SR-LAB, San Diego Instruments, San Diego, Calif.) consisting of a startle chamber equipped with various programming acoustic stimulations. After acclimation, the mouse was gently placed in the startle chamber for a 4 min acclimation period with a background noise of 65 dB, which continued throughout the whole PPI test session. One PPI test session consisted of 4 types of startle trials, including the trial with the startle pulse (115 dB) alone (PULSEALONE; 115 dB, 20 ms), two trials with the startle pulse paired with 71 and 77 dB prepulses, respectively (PREPULSE+PULSE; 71 dB+115 dB and 77 dB+115 dB), and the trial without stimulus (NOSTIM; background 65 dB only). A test session started and ended, respectively, with four NOSTIM trials and four PULSEALONE trials. In between, each of the four types of trials was presented 14 times randomly, that is, 56 trials were given in a test session. The intertrial interval was given randomly from 5 to 20 s. In the PREPULSE+PULSE trial, a 71 or 77 dB prepulse was given 120 ms before the 115 dBpulse. The magnitude of PPI (PPI %) was determined, after summarizing the startle responses in PULSEALONE and PREPULSE+PULSE trials, according to the equation (PULSEALON−PREPULSE+PULSE)/PULSEALONE×100%. The tested compound or vehicle was given to the animal for 15 min, followed by methamphetamine (2 mg/kg). The PPI test was conducted 10 min after injection of methamphetamine. Data were expressed as the mean±S.E.M. Statistical comparisons among groups were analyzed by ANOVA with Tukey post hoc test, and differences between groups were analyzed by Student's t-test. Two-way ANOVA with Bonferroni's post hoc test was used to analyze differences in the time courses of locomotor activity among groups. Differences were considered significant if P<0.05.
Methamphetamine and apomorphine were dissolved in normal saline for i.p. And s.c. Injections, respectively. Tested compounds and haloperidol, when given by i.p. Injection, were dissolved in a vehicle containing 20% dmso, 20% Cremophor® el (polyoxyethylene castor, sigma-aldrich) and 60% normal saline. Furosemide was dissolved (20 nmole/μL) in dimethylsulfoxide for intra-cerebellar microinjection the i.p. or s.c. Injection volume was 10 mL/kg.

Data set [2] in a line: Microsomal stability assay, human liver microsomes. The format is in vitro ADME. As to conditions: 10 μM test compound, 0.5 mg/mL protein, 37° C. The procedure: (§1) 4 μL of 1 mM test compound at a final concentration of 10 μM dissolved in DMSO/ACN/Methanol/Ethanol was preincubated at 37° C. for 5 minutes on a digital heating shaking dry bath (Fischer scientific, Pittsburgh, Pa.) in a mixture containing 282 μL of water, 80 μL of phosphate buffer (0.5 M, pH 7.4), 20 μL of NADPH Regenerating System Solution A (BD Bioscience, San Jose, Calif.) and 4 μL of NADPH Regenerating System Solution B (BD Bioscience, San Jose, Calif.) in a total volume of 391.2 μL. Following preincubation, the reaction was initiated by addition of 8.8 μL of either human liver microsomes (BD Gentest, San Jose, Calif.), mouse liver microsomes (Life technologies, Rockford, Ill.), at a protein concentration of 0.5 mg/mL. Aliquots of 50 μL were taken at time intervals of 0 (without microsomes), 10, 20, 30, 40, 50 and 60 minutes. Each aliquot was added to 100 μL of cold acetonitrile solution containing 1 μM/2 μM internal standard. This was followed by sonication for 10 seconds and centrifugation at 10,000 rpm for 5 minutes. 100 μL of the supernatant was transferred into Spin-X HPLC filter tubes (Corning Incorporated, NY) and centrifuged at 13,000 rpm for 5 minutes. […] The ratio of the peak areas of the internal standard and test compound was calculated for every time point and the natural log of the ratio were plotted against time to determine the linear slope (k). […] All experiments were repeated three times in duplicates.
In general terms: Liver microsomes are vesicles of endoplasmic reticulum, rich in cytochrome P450 enzymes.

A short description of data set [3]: Half-life in liver microsomes (Example 4). The format is in vitro ADME. The settings on record: rat and human liver microsomes, species of the value not stated. The text has this:
Metabolic pathways that may disrupt the activity of compounds with aryl methoxy groups were investigated.

Data set [4] in a line: Microsomal stability assay, mouse liver microsomes. The settings on record: 10 μM test compound, 0.5 mg/mL protein, 37° C.; for half-life at 10 μM: mouse, liver microsomes, pH 7.4, read-out: Half-life (min) (MLM). The format is in vitro ADME. As for the experimental part:
as §1

Another data set relates to HEPG2 cell line. In words: Cytotoxicity study, CellTiter-Glo cell viability. The format is cell-based, Human. The settings on record: HEPG2, 48 hours incubation. The procedure:
Reagents and Instrumentation: Human liver hepatocellular carcinoma (HEPG2) cell line was purchased (ATCC) and cultured in 75 cm2 flasks (CellStar). Cells were grown in DMEM/High Glucose (Hyclone, #SH3024301) media to which non-essential amino acids (Hyclone, #SH30238.01), 10 mM HEPES (Hyclone, #SH302237.01), 5×106 units of penicillin and streptomycin (Hyclone, #SV30010), and 10% of heat inactivated fetal bovine serum (Gibco, #10082147) were added. Cells were harvested using 0.05% Trypsin (Hyclone, #SH3023601), which disrupts the cell monolayer and proteolytically cleaves the bonds between the cells and flask. The cell viability assay was evaluated using CellTiter-Glo™ Luminescent Cell Viability Assay Kit (Promega, Madison, Wis.) which contains luciferase and all its substrate except ATP. The controls for the cytotoxicity assay used were (E)-10-(bromotriphenylphosphoranyl)decyl 4-(4-(tert-butyl)phenyl)-4-oxobut-2-enoate (400 μM in DMSO, positive control) and DMSO (negative control). Cell culture was performed in a Baker Company Class II Biological Safety Cabinet. All luminescence readings were performed on a Tecan Infinite M1000 plate reader. Small volume transfers were performed on the Tecan Freedom EVO liquid handling system with a 100 nL pin tool transfer (V&P Scientific). Serial dilutions were done in 96-well polypropylene plates (Corning, #3365) and assays were conducted in 384-well white optical bottom plates.
Luminescence-Based VDR-Mediated Transcription Assay Protocol: After 48 hours of incubation at 37 °C with 5% CO2, the cells were harvested with 4 mL of 0.05% Trypsin, added to 10 mL of the assay buffer, DMEM/High Modified buffer without phenol red, and spun down for 3 minutes at 1000 rpm. The media was removed and cells were resuspended in the DMEM assay media. To each well, 40 μL of cells were added to yield a final concentration of 15,000 cells per well. The plates were then spun down for 2 minutes at 1000 rpm. After 2 hours, plated cells were treated with 100 nL×4 of small molecules and controls which were added using the pin tool. After 48 hours of incubation at 37 °C with 5% CO2, 20 μL of Cell Titer-Glo™ Luminescence Assay Kit (cytotoxicity assay) were added and luminescence was read. Controls were measured within each plate to determine the z′ factor (Equation 1) and to enable data normalization. Three independent experiments were performed in quadruplicate and data was analyzed using nonlinear regression with variable slope (GraphPrism, Equation 2). The luminescence intensity of control (untreated) cells was taken as 100% viability, and the relative cell viability compared to control was calculated. Data are presented as the means±SEM of a series of three experiments.

Data set [5] can be described thus: Solubility of compounds in DI water. The data set is classed as physicochemical. The settings on record: thermodynamic from solid; 2 mg in 2 mL DI water, sonicated at 60° C. for 2 hours, cooled to room temperature, filtered. The procedure:
The solubility of the compounds was examined by sonicating 2 mg of each respective compound in 2 mL of DI water at 60° C. for 2 hours. Solutions were cooled to room temperature and then filtered using a syringe filter. The resultant solutions were injected into a mass spectrometer using a SIM method, calibrated to the respective retention times and mass units of each compound. Calibration curves using standard solutions (5 data points) of each compound dissolved in methanol were used to calculate the unknown aqueous concentrations of each compound.

The structures appear in SMILES notation. ≈ marks a conversion by molar mass, not a printed value.

For `[2H]C([2H])([2H])Oc1ccc2c3nn(-c4ccc(OC)cc4)c(=O)c-3c[nH]c2c1` [RV-I-029, 7-Methoxy-d3-2-(4-methoxyphenyl)-2,5-dihydro-3H-pyrazolo[4,3-c]quinolin-3-one], the “rescue of METH-impaired PPI” value in data set [1] (listed as 1-29) was “effective”. For the same molecule, the “% left after 1 hr. (HLM)” value in data set [2] amounted to 95.35 ± 1%. Moreover, in data set [2] (human, liver microsomes, pH 7.4, read-out: Half-life (min) (HLM)), the half-life at 10 μM amounted to 2970 ± 742 min. Moreover, the half-life in data set [3] was greater than 50 h. In data set [4], the “% left after 1 hr. (MLM)” value turned out to be 93.17 ± 016% and the “Half-life (min) (MLM)” value came to 857.8 ± 235 min.
Take `COc1ccc(-n2nc3c4ccc(Br)cc4[nH]cc-3c2=O)cn1` [DK-II-48-1, 7-Bromo-2-(6-methoxypyridin-3-yl)-2,5-dihydro-3H-pyrazolo[4,3-c]quinolin-3-one]: in data set [2], the “% left after 1 hr. (HLM)” value amounted to 93.4 ± 0.11% and the “Half-life (min) (HLM)” value worked out at 727.7 ± 115 min. Besides, the “toxicity at 400 μM” value in the data set with HEPG2 cell line was “non-toxic”. Moreover, in data set [4], the “% left after 1 hr. (MLM)” value was determined as 93.12 ± 0.22% and the “Half-life (min) (MLM)” value was 680.6 ± 114 min.
As for `[2H]C([2H])([2H])Oc1cccc(-n2nc3c4cc(Cl)ccc4[nH]cc-3c2=O)c1` [DK-I-59-1, 8-Chloro-2-(3-methoxy-d3-phenyl)-2,5-dihydro-3H-pyrazolo[4,3-c]quinolin-3-one], the “rescue of METH-impaired PPI” value in data set [1] is listed as “effective”. In addition, in data set [2], the “% left after 1 hr. (HLM)” value is on record as 93 ± 0.09% and the “Half-life (min) (HLM)” value stood at 649 ± 81 min. Further, the “toxicity at 400 μM” value in the data set with HEPG2 cell line is given as “non-toxic”. Moreover, in data set [4], the “% left after 1 hr. (MLM)” value is on record as 76.6 ± 0.11% and the half-life at 10 μM stood at 166 ± 7.5 min.
For the molecule `[2H]C([2H])([2H])Oc1ccc(-n2nc3c4ccc(Br)cc4[nH]cc-3c2=O)cc1` [DK-I-58-1, 7-Bromo-2-(4-methoxy-d3-phenyl)-2,5-dihydro-3H-pyrazolo[4,3-c]quinolin-3-one], the concentration in solution in data set [5] (solubility at 2 h) came to 9.2 µg/mL (≈ 24.7 µM). For the same molecule, in data set [2], the “% left after 1 hr. (HLM)” value was 81.5 ± 0.11% and the “Half-life (min) (HLM)” value was found to be 204.6 ± 10 min. Further, the “toxicity at 400 μM” value in the data set on HEPG2 cell line is “non-toxic”. In addition, in data set [4], the “% left after 1 hr. (MLM)” value stood at 73.8 ± 0.15% and the half-life at 10 μM is 140 ± 7.18 min.
The molecule `[2H]C([2H])([2H])Oc1ccc(-n2nc3c4ccc(OC([2H])([2H])[2H])cc4[nH]cc-3c2=O)cc1` [DK-I-60-3, 7-Methoxy-d3-2-(4-methoxy-d3-phenyl)-2,5-dihydro-3H-pyrazolo[4,3-c]quinolin-3-one] came in with a solubility at 2 h in data set [5] of 16 µg/mL (≈ 48.9 µM). Also, in data set [2], the “% left after 1 hr. (HLM)” value was 91.51 ± 0.18% and the “Half-life (min) (HLM)” value worked out at 780.73 ± 238 min. The “toxicity at 400 μM” value in the data set on HEPG2 cell line is listed as “non-toxic”. Also, in data set [4], the “% left after 1 hr. (MLM)” value is reported as 93.08 ± 0.19% and the “Half-life (min) (MLM)” value turned out to be 846.85 ± 276 min.

The half-life is how long it takes for the measured level to halve. By solubility is commonly meant how much of the substance goes into solution per volume. Read a high solubility as much dissolved substance.
